Results as given in publication PMC12259270, “Sensory neuron–expressed FGF13 controls nociceptive signaling in diabetic neuropathy models” (The Journal of Clinical Investigation, 2025).
Where “and” joins values, the source holds several entries; their conditions need not be identical. Equal values may be shown once. Residues, ends and D or L forms follow the SMILES beside them. *: point of attachment. NHPh = c1ccc(N*)cc1

System: C57BL/6 mice
Assay: Capsaicin-induced mechanical hypersensitivity (von Frey)
Assay type: in vivo, mouse
Design: LVF Mean / HVF Mean / MECHANICAL LVF / MECHANICAL HVF: unit not given here
Text: FGF13 is a neuronal gene ubiquitously transcribed in DRG neuronal subtypes ([43]–[46]). To investigate neuronal subtype enrichment of the FGF13 transcript, we examined a gene panel including FGF13, SCN9A, and several marker genes in mouse single-cell transcriptomic data (Supplemental Figure 10) ([43]–[46]). […] Critically, putative silent nociceptors marked by somatostatin (SST), and the nicotinic cholinergic receptor α-3 subunit (CHRNA3) contribute to development of inflammatory mechanical hyperalgesia ([47]). […] We next determined if PW164 modulation of the FGF13/Nav1.7 complex could suppress nociceptive behaviors in WT mice. We tested whether intraplantar (i.pl.) injection (5 μL) of PW164 altered hind paw withdrawal in response to low or high intensity von Frey filament (LVF or HVF, respectively) mechanical stimulation (Figure 3A). […] Next, we evaluated PW164’s effect on mechanical and thermal hindpaw sensitivity in capsaicin-induced nociceptive hypersensitivity models. […] Next, we performed in vivo target validation in WT mice that received an intrathecal (i.t.) injection in L5 of AAV2-shFGF13 (6 μL, viral titers 1 × 10^12 vector genomes (vg)/mL); a control group received an equal number of AAV2-shCTRL particles (Figure 3C).
Experiments were performed on 6- to 12-week-old male C57BL/6 mice (The Jackson Laboratory, Bar Harbor, ME) housed in the AAALAC-accredited facility at the University of Texas Medical Branch. Mice were group-housed with up to 5 mice per cage on a 12-to-12-hour light–dark cycle and had access to water and food ad libitum. All protocols were approved by the Institutional Animal Care and Use Committee (IACUC) at the University of Texas Medical Branch and in accordance with the National Institutes of Health (NIH) guidelines.
PW164 and ZL192 were dissolved in DMSO and saline in a ratio of 1:10. 0.1% capsaicin (10% ethanol, 10% Tween-20 in saline; Sigma-Aldrich). All the compounds were injected at the center of the hind paw. The control group received a DMSO-saline mixture. […]
Bupivacaine was prepared from a 1:2 dilution with sterile 0.9% saline and locally injected in the center of the paw at 7 mg/ml.
AAV2 viral particles packaged by the University of North Carolina Gene Therapy Core Facility (viral titer ranging […]
Before intrathecal injections in the lumbar region, mice were maintained in an anesthetizing box with 2% isoflurane to induce unconsciousness. Six microliters of viral vector were gently injected into the CSF through a 30-gauge needle with a Hamilton syringe in the lumbar area between vertebrae L4 and L5 by gently gripping the iliac crest of the mouse and inserting the needle with an angle of 45°. The correct procedure was confirmed by the mouse’s tail reflexiv e flick.
Assessment of mechanical sensitivity
Mechanical sensitivity was assessed using von Frey filaments (VFF 0.1g and 1.0 g force) in mice that were either naïve or received intraplantar (i.p.) injection of capsaicin. VFFs were applied at the injection site (capsaicin or […]

[1] = Zl 0192 .06mg/ml 5ul site 2 i.d(after cap 0.5h ), Male GFP mouse site 1, hour 0
[2] = Zl 0192 .06mg/ml 5ul site 2 i.d(after cap 0.5h ), Male GFP mouse site 1, hour 0.5
[3] = Zl 0192 .06mg/ml 5ul site 2 i.d(after cap 0.5h ), Male GFP mouse site 1, hour 1
[4] = Zl 0192 .06mg/ml 5ul site 2 i.d(after cap 0.5h ), Male GFP mouse site 1, hour 1.5
[5] = Zl 0192 .06mg/ml 5ul site 2 i.d(after cap 0.5h ), Male GFP mouse site 1, hour 2
[6] = Zl 0192 .06mg/ml 5ul site 2 i.d(after cap 0.5h ), Male GFP mouse site 1, hour 3
[7] = Zl 0192 .06mg/ml 5ul site 2 i.d(after cap 0.5h ), Male GFP mouse site 2, hour 0
[8] = Zl 0192 .06mg/ml 5ul site 2 i.d(after cap 0.5h ), Male GFP mouse site 2, hour 0.5
[9] = Zl 0192 .06mg/ml 5ul site 2 i.d(after cap 0.5h ), Male GFP mouse site 2, hour 1
[10] = Zl 0192 .06mg/ml 5ul site 2 i.d(after cap 0.5h ), Male GFP mouse site 2, hour 1.5
[11] = Zl 0192 .06mg/ml 5ul site 2 i.d(after cap 0.5h ), Male GFP mouse site 2, hour 2
[12] = Zl 0192 .06mg/ml 5ul site 2 i.d(after cap 0.5h ), Male GFP mouse site 2, hour 3
[13] = Zl 0192 .06mg/ml 5ul site 2 i.d., Male GFP mouse site 1, hour 0
[14] = Zl 0192 .06mg/ml 5ul site 2 i.d., Male GFP mouse site 1, hour 0.5
[15] = Zl 0192 .06mg/ml 5ul site 2 i.d., Male GFP mouse site 1, hour 1
[16] = Zl 0192 .06mg/ml 5ul site 2 i.d., Male GFP mouse site 1, hour 1.5
[17] = Zl 0192 .06mg/ml 5ul site 2 i.d., Male GFP mouse site 1, hour 2
[18] = Zl 0192 .06mg/ml 5ul site 2 i.d., Male GFP mouse site 1, hour 3
[19] = Zl 0192 .06mg/ml 5ul site 2 i.d., Male GFP mouse site 2, hour 0
[20] = Zl 0192 .06mg/ml 5ul site 2 i.d., Male GFP mouse site 2, hour 0.5
[21] = Zl 0192 .06mg/ml 5ul site 2 i.d., Male GFP mouse site 2, hour 1
[22] = Zl 0192 .06mg/ml 5ul site 2 i.d., Male GFP mouse site 2, hour 1.5
[23] = Zl 0192 .06mg/ml 5ul site 2 i.d., Male GFP mouse site 2, hour 2
[24] = Zl 0192 .06mg/ml 5ul site 2 i.d., Male GFP mouse site 2, hour 3
[25] = Zl 0192 .18mg/ml 5ul site 2 i.d(after cap 0.5h ), Male GFP mouse site 1, hour 0
[26] = Zl 0192 .18mg/ml 5ul site 2 i.d(after cap 0.5h ), Male GFP mouse site 1, hour 0.5
[27] = Zl 0192 .18mg/ml 5ul site 2 i.d(after cap 0.5h ), Male GFP mouse site 1, hour 1
[28] = Zl 0192 .18mg/ml 5ul site 2 i.d(after cap 0.5h ), Male GFP mouse site 1, hour 1.5
[29] = Zl 0192 .18mg/ml 5ul site 2 i.d(after cap 0.5h ), Male GFP mouse site 1, hour 2
[30] = Zl 0192 .18mg/ml 5ul site 2 i.d(after cap 0.5h ), Male GFP mouse site 1, hour 3
[31] = Zl 0192 .18mg/ml 5ul site 2 i.d(after cap 0.5h ), Male GFP mouse site 2, hour 0
[32] = Zl 0192 .18mg/ml 5ul site 2 i.d(after cap 0.5h ), Male GFP mouse site 2, hour 0.5
[33] = Zl 0192 .18mg/ml 5ul site 2 i.d(after cap 0.5h ), Male GFP mouse site 2, hour 1
[34] = Zl 0192 .18mg/ml 5ul site 2 i.d(after cap 0.5h ), Male GFP mouse site 2, hour 1.5
[35] = Zl 0192 .18mg/ml 5ul site 2 i.d(after cap 0.5h ), Male GFP mouse site 2, hour 2
[36] = Zl 0192 .18mg/ml 5ul site 2 i.d(after cap 0.5h ), Male GFP mouse site 2, hour 3
[37] = Zl 0192 .18mg/ml 5ul site 2 i.d., Male GFP mouse site 1, hour 0
[38] = Zl 0192 .18mg/ml 5ul site 2 i.d., Male GFP mouse site 1, hour 0.5
[39] = Zl 0192 .18mg/ml 5ul site 2 i.d., Male GFP mouse site 1, hour 1
[40] = Zl 0192 .18mg/ml 5ul site 2 i.d., Male GFP mouse site 1, hour 1.5
[41] = Zl 0192 .18mg/ml 5ul site 2 i.d., Male GFP mouse site 1, hour 2
[42] = Zl 0192 .18mg/ml 5ul site 2 i.d., Male GFP mouse site 1, hour 3
[43] = Zl 0192 .18mg/ml 5ul site 2 i.d., Male GFP mouse site 2, hour 0
[44] = Zl 0192 .18mg/ml 5ul site 2 i.d., Male GFP mouse site 2, hour 0.5
[45] = Zl 0192 .18mg/ml 5ul site 2 i.d., Male GFP mouse site 2, hour 1
[46] = Zl 0192 .18mg/ml 5ul site 2 i.d., Male GFP mouse site 2, hour 1.5
[47] = Zl 0192 .18mg/ml 5ul site 2 i.d., Male GFP mouse site 2, hour 2
[48] = Zl 0192 .18mg/ml 5ul site 2 i.d., Male GFP mouse site 2, hour 3

CC(=O)N[C@@H](Cc1ccccc1)C(=O)N[C@@H](CC(C)C)C(=O)N1CCC[C@H]1C(=O)N[C@@H](CCCCN)C(=O)Nc1ccccc1 [Zl 0192] (Ac-FLPK-NHPh)
20 and 30: MECHANICAL LVF [18]
20 and 10: MECHANICAL LVF [24]
0: MECHANICAL LVF [1] | MECHANICAL LVF [7] | MECHANICAL LVF [13] | MECHANICAL LVF [19] | MECHANICAL LVF [25] | MECHANICAL LVF [31] | MECHANICAL LVF [37] | MECHANICAL LVF [43]
60 and 70: MECHANICAL LVF [10] | MECHANICAL LVF [32] | MECHANICAL LVF [34]
40 and 60: MECHANICAL LVF [20]
80 and 50: MECHANICAL HVF [24]
90 and 70: MECHANICAL HVF [22]
60 and 50: MECHANICAL LVF [22] | MECHANICAL HVF [25] | MECHANICAL LVF [44]
40 and 70: MECHANICAL LVF [14]
80: MECHANICAL LVF [4] | MECHANICAL HVF [18] | MECHANICAL LVF [39]
80 and 90: MECHANICAL HVF [17] | MECHANICAL LVF [28] | MECHANICAL LVF [29]
50: MECHANICAL HVF [1] | MECHANICAL HVF [7] | MECHANICAL HVF [13] | MECHANICAL LVF [17] | MECHANICAL HVF [19] | MECHANICAL HVF [31] | MECHANICAL HVF [37] | MECHANICAL HVF [43] | MECHANICAL LVF [48]
40 and 50: MECHANICAL LVF [38]
80 and 70: MECHANICAL LVF [5] | MECHANICAL LVF [6] | MECHANICAL LVF [16] | MECHANICAL HVF [23]
100: MECHANICAL HVF [2] | MECHANICAL HVF [3] | MECHANICAL HVF [4] | MECHANICAL HVF [5] | MECHANICAL HVF [6] | MECHANICAL HVF [8] | MECHANICAL HVF [9] | MECHANICAL HVF [10] | MECHANICAL HVF [11] | MECHANICAL HVF [12] | MECHANICAL HVF [14] | MECHANICAL HVF [15] | MECHANICAL HVF [16] | MECHANICAL HVF [20] | MECHANICAL HVF [21] | MECHANICAL HVF [26] | MECHANICAL HVF [27] | MECHANICAL HVF [28] | MECHANICAL HVF [29] | MECHANICAL HVF [30] | MECHANICAL HVF [32] | MECHANICAL HVF [33] | MECHANICAL HVF [34] | MECHANICAL HVF [35] | MECHANICAL HVF [36] | MECHANICAL HVF [38] | MECHANICAL HVF [39] | MECHANICAL HVF [40] | MECHANICAL HVF [41] | MECHANICAL HVF [42] | MECHANICAL HVF [44] | MECHANICAL HVF [45] | MECHANICAL HVF [46] | MECHANICAL HVF [47] | MECHANICAL HVF [48]
70 and 80: MECHANICAL LVF [15]
70: MECHANICAL LVF [2] | MECHANICAL LVF [3] | MECHANICAL LVF [21] | MECHANICAL LVF [36] | MECHANICAL LVF [40] | MECHANICAL LVF [47]
60: MECHANICAL LVF [9] | MECHANICAL LVF [33] | MECHANICAL LVF [42] | MECHANICAL LVF [46]
70 and 60: MECHANICAL LVF [11] | MECHANICAL LVF [26] | MECHANICAL LVF [27] | MECHANICAL LVF [35] | MECHANICAL LVF [41] | MECHANICAL LVF [45]
50 and 60: MECHANICAL LVF [8]
30 and 40: MECHANICAL LVF [12] | MECHANICAL LVF [23]
90 and 80: MECHANICAL LVF [30]
